Laboratory results from patent publication US20050182002A1, “Agents which interact with a serotonin transporter for the treatment of cancer” (priority 2002, published 2005).
Like-named read-outs stand apart in the source and are kept apart here.

Columns and labels:
[1] = tested on: non-BL lines Nalm-6, RPMI 8226, Jurkat, J10, and CEM; assay: DNA synthesis (3H-Thymidine incorporation) in non-BL lines; format: cell-based; settings: data not shown
[2] = tested on: L3055 cells; assay: Cell cycle analysis (propidium iodide, flow cytometry); format: cell-based; settings: 24 hr; each at its maximal concentration (5-HT 150 μM, fluoxetine 10 μM, anti-μ chain antibody 10 μg/ml)
Protocol: Cells cultured under conditions indicated below were harvested into 100 μl of 1×PBS followed by 400 μl cell cycle buffer containing Triton X-100 and propidium iodide and left to incubate at 4° C. for 1 hr to allow staining of DNA. The degree of fluorescence emitted by bound PI is directly proportional to the amount of DNA in each cell and was measured by flow cytometry as previously described (MacDonald I, et al. Blood (1996); 87:1147-1154). Results are expressed as percentage of viable cells residing in each phase of the cycle.

[3] = tested on: biopsylike BL cells; assay: Real-time RT-PCR gene expression; format: cell-based; settings: data not shown
From the text: BL is characterised by translocations of one c-myc allele to one of the immunoglobulin loci and the extraordinarily high growth rate that characterises these tumours reflects the pro-proliferative actions of the translocated gene. Despite its hallmark translocation to immunoglobulin loci, the BL-associated constitutive expression of c-myc remains dependent on the binding of the recognised c-myc transcription factor Nm23-H2 to a PuF site within the regulatory sequence of the translocated gene.

[4] = tested on: L3055 cells; assay: Intracellular free Ca2+; format: cell-based
From the text: The increase in intracellular free Ca^2+ is known to be an important step in the induction of apoptosis.

[5] = tested on: biopsylike BL cells; assay: PARP-1 cleavage; format: cell-based; settings: 20 μM fluoxetine
[6] = tested on: L3055 BL cells; assay: DNA synthesis by [3H]-thymidine incorporation in L3055 cells; format: cell-based
Protocol: DNA synthesis was determined by measuring ^3H-thymidine ([^3H]Tdr; Amersham, UK) incorporation into cellular DNA. Cells were cultured in 200 μL of supplemented medium at densities and for times indicated below in flat-bottomed, 96-well tissue culture plates (Becton Dickinson, Oxford, U K) then pulsed for the final 4 h with 50 μl of 10 μCi/ml [^3H]Tdr before harvesting on a Skatron cell harvester (Helis Bio Ltd, Newmarket, UK).

[7] = tested on: L3055 BL cells; assay: Annexin V binding (phosphatidylserine exposure), FACS; format: cell-based; settings: fluoxetine 20 μM, 17 h, 10^6/ml, Means ± SE of 3
From the text: Annexin V binding to phosphatidylserine exposed on the outer leaflet of cells to signal for phagocytic engulfment is another commonly used measure of programmed death although caution should be applied when using as a sole indicator for assessing apoptosis in B cells.

[8] = tested on: L3055 BL cells; assay: TUNEL DNA strand breaks, FACS; format: cell-based; settings: fluoxetine 20 μM, 17 h, 10^6/ml; Means ± SE of 3; control 17.8 ± 3.7
From the text: Neither BL cells nor their normal germinal centre B cell equivalents tended to produce the extensive “DNA ladders” that can be seen as a result of DNA fragmentation when other cells (e.g. thymocytes) undergo apoptosis.

[9] = tested on: L3055 cells; assay: Caspase activity (FAM-VAD-FMK, FACS); format: cell-based; settings: single dose for 24 hours; fluoxetine 10 μM, paroxetine 10 μM, citalopram 100 μM
Protocol: Caspase activity was detected using the CaspaTag Caspase Activity Kit (Intergen, Oxford, UK). Cells cultured under the conditions indicated below were harvested into 300 μl of culture medium at a cell density of 10^6cells/ml, followed by the addition of […] of a 30×working solution of FAM-VAD-FMK (a carboxy fluorescent tagged caspase inhibitor) (Intergen Co., USA). Cells were then incubated for 1 hr at 37° C. under 5% CO2 while protecting the tubes from light. At the end of the incubation, they were washed twice in 2 ml of 1×washing buffer, followed by addition of 2 μl of PI to distinguish dead cells from live cells, then analysed on an EPICS XL-MCL flow cytometer or by confocal microscopy. For the latter, treated cells were harvested into 300 μl of culture medium containing 10 μl of FAM-VAD-FMK before incubating for 1 hr under the conditions described above. Next, 1.5 μl of Hoechst 33342 stain was added for 5 min, and cells were washed twice in 2 ml of 1×washing buffer following the addition of 1 μl of PI.

[10] = tested on: actively cycling tonsilar B cells; assay: DNA synthesis in actively cycling tonsilar B cells; format: cell-based; settings: overnight fluoxetine up to 20 μM after 2 days stimulation with SAC (± CD40L) or PMA (± ionomycin)
[11] = tested on: normal peripheral blood mononuclear cells (PBMC); settings: 24 h
From the text: Patients on SSRI's for depression sustain their circulating levels for months on repeated administrations. Also, circulating levels are believed to represent a gross underestimation of the accumulation of SSRI in body tissues. The lymphoma are, by definition, tumours of lymphoid tissues (e.g. lymph nodes).

[12] = tested on: L3055 cells; assay: Syto 16 / propidium iodide staining (viable, apoptotic, necrotic); format: cell-based
Protocol: Changes in the viability of cells cultured under conditions indicated below were quantified by assessment of forward and 90° (side) light scatter of cells as previously described (Dive C, et al. Biochimica Biophysica Acta (1992); 1133:275-285) using an EPICS XL-MCL flow cytometer (Beckman Coulter, Miami, Fla., USA). Prior to analysis, cells were harvested into polythene FACS tubes, and fixed at 4° C. in 400 μl of FACS buffer [PBS with 5% NGS and 2% Formaldehyde] (BDH/MERCK). Cells were gated in two populations (viable and dead) according to their forward and side light scatter. Viability was expressed as a percentage of the total number of cells residing in the viable and non-viable gates. Cells were also analysed according to Schuurhuis et al (Schuurhuis G J, et al. Exp. Haematol. (1997); 25:754-759) in order to assess the percentages within treated populations of those that were viable, apoptotic, or necrotic. Syto 16 was added at a concentration of 250 nM in PBS to 500,000 cells and incubated at RT for 30 min, at which time 5 μg/ml propidium iodide (PI) was added. Samples were then analysed immediately by FACS and a 2D plot generated of syto 16 fluorescence versus PI fluorescence: syto 16 is taken up only by viable cells whereas Pi exclusively enters necrotic cells—syto 16^−ve/PI^−ve cells are deemed apoptotic.

For `CNCCC(Oc1ccc(C(F)(F)F)cc1)c1ccccc1` (stereo not shown) [fluoxetine], the “level of 3H-Thymidine incorporation in non-BL lines (in words)” value [1] was “either no, or only minor reductions”, the “cell cycle status (in words)” value [2] was “accumulation of arresting cells in the G0/G1 compartment” and the “reduction in levels of c-myc” value ([3]; 6 h exposure to fluoxetine) was ~60%. For the same compound, the “reduction in levels of nm23-H2” value ([3]; 6 h exposure to fluoxetine) was ~60%, the “decrease in the expression of nm23-H1 mRNA” value ([3]; fluoxetine) was 75% and the “basal Ca2+ (in words)” value ([4]; data not shown) was “increase in basal Ca^2+”. For the same compound, the “levels of intracellular free Ca2+ (in words)” value ([4]; fluoxetine concentration range (FIG. 23)) was “sustained increase in the levels of intracellular free Ca^2+”, the “PARP-1 cleavage (in words)” value [5] was “extensive PARP-1 cleavage” and the “influence of pre-treatment on 5-HT-dependent inhibition of DNA synthesis (in words)” value ([6]; cells pre-treated with agent before 5-HT) was “substantially reversed”. The “effect on DNA synthesis (in words)” value ([6]; single dose, range of concentrations, [3H]-thymidine incorporation at 24 hr) was “dose dependent inhibitory effect”, the “Annexin V binding MFI” value ([7]; control 3.9 ± 0.2) was 26.1 ± 8.4 and the “Annexin V binding % positive” value ([7]; control 52.3 ± 1.8) was 81.1 ± 3.9%. For the same compound, the “% TUNEL positive” value [8] was 35.7 ± 7.6%, the “effect on number of cells showing caspase activity (in words)” value [9] was “significant effect on the numbers of cells showing caspase activity” and the “inhibition of DNA synthesis in actively cycling B cells (in words)” value [10] was “Little inhibition of DNA synthesis”. The “viability of PBMC” value ([11]; 5 μM) was 97.3±0.88%, the “viability of PBMC” value ([11]; 10 μM) was 97.3±0.33% and the “lymphoma cells entering apoptosis” value ([12]; fluoxetine 10-15 μM, 24 hours) was “about 40%”. For the same compound, the “number of viable cells (syto 16+ve/PI−ve) (in words)” value ([12]; increasing concentrations, 24 hr) was “directly drove the lymphoma cells to die”.
